From ChEMBL document CHEMBL1201862, “PubChem BioAssay data set” (2004)
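Interpolation was linear, between the two tested concentrations surrounding the appropriate level; five concentrations were tested over 48 hours in 96-well plates. At the GI50, growth is halved.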 The source made the active and inactive calls. Rule as the data show it: active = GI50 up to about 1.1 µM and inactive = higher.

Tests used:
Assay in all cases: DTP human tumour cell line panel, 48 h
[1] = test system: SK-MEL-28
[2] = test system: MCF7
[3] = test system: PC-3
[4] = test system: HT-29
[5] = test system: SNB-75
[6] = test system: NCI-H23
[7] = test system: TK-10
[8] = test system: CCRF-CEM
[9] = test system: MOLT-4
[10] = test system: HCC 2998
[11] = test system: UACC-62
[12] = test system: SF-268
[13] = test system: SW-620
[14] = test system: SNB-19
[15] = test system: SF-295
[16] = test system: SK-MEL-2
[17] = test system: LOX IMVI
[18] = test system: Malme-3M
[19] = test system: OVCAR-4
[20] = test system: 786-0

CCN(CC)C(=S)SC1CCOP(=O)(N(CCCl)CCCl)N1C (stereo not given)
GI50 [1]: 26.9 µM (inactive)
GI50 [2]: 69.3 µM (inactive)
GI50 [3]: > 100 µM (inactive)
GI50 [4]: 1.99 µM (inactive)
GI50 [5]: > 55.1 µM (inactive)
GI50 [6]: > 100 µM (inactive)
GI50 [7]: > 71.1 µM (inactive)
GI50 [8]: 0.109 µM (active)
GI50 [9]: 0.439 µM (active)
GI50 [10]: 33.4 µM (inactive)
GI50 [11]: 1.83 µM (inactive)
GI50 [12]: > 50.7 µM (inactive)
GI50 [13]: 1.71 µM (inactive)
GI50 [14]: > 92.9 µM (inactive)
GI50 [15]: 55.6 µM (inactive)
GI50 [16]: 20.5 µM (inactive)
GI50 [17]: 1.41 µM (inactive)
GI50 [18]: 27.5 µM (inactive)
GI50 [19]: 29.9 µM (inactive)
GI50 [20]: 41.2 µM (inactive)

CCOC(=O)C(Cc1ccc(N(CCCl)CCCl)cc1)NC(=O)CCCN1C(=O)CN=C(c2ccccc2)c2cc(Cl)ccc21 (stereo not given)
GI50 [1]: 3.03 µM (inactive)
GI50 [2]: 8.53 µM (inactive)
GI50 [3]: 11.7 µM (inactive)
GI50 [4]: 15.3 µM (inactive)
GI50 [5]: 15.8 µM (inactive)
GI50 [6]: 9.66 µM (inactive)
GI50 [7]: > 66.5 µM (inactive)
GI50 [8]: 2.61 µM (inactive)
GI50 [9]: 2.44 µM (inactive)
GI50 [10]: 12.4 µM (inactive)
GI50 [11]: 2.72 µM (inactive)
GI50 [12]: 4.01 µM (inactive)
GI50 [13]: 10.2 µM (inactive)
GI50 [14]: > 100 µM (inactive)
GI50 [15]: 51.4 µM (inactive)
GI50 [16]: 14.7 µM (inactive)
GI50 [17]: 3.18 µM (inactive)
GI50 [18]: 2.35 µM (inactive)
GI50 [19]: 18.6 µM (inactive)
GI50 [20]: 10.2 µM (inactive)

O=C1c2cccnc2C(=O)c2c1nc1ccccc1c2-c1cncc(-c2c3c(nc4ccccc24)C(=O)c2cccnc2C3=O)c1
GI50 [1]: 0.22 µM (active)
GI50 [2]: 0.157 µM (active)
GI50 [3]: 0.303 µM (active)
GI50 [4]: 0.327 µM (active)
GI50 [5]: 0.398 µM (active)
GI50 [6]: 0.343 µM (active)
GI50 [7]: 0.458 µM (active)
GI50 [8]: 0.198 µM (active)
GI50 [9]: 0.117 µM (active)
GI50 [10]: 0.359 µM (active)
GI50 [11]: 0.474 µM (active)
GI50 [12]: 0.159 µM (active)
GI50 [13]: 0.041 µM (active)
GI50 [14]: 0.22 µM (active)
GI50 [15]: 0.614 µM (active)
GI50 [16]: 0.693 µM (active)
GI50 [17]: 0.139 µM (active)
GI50 [18]: 0.28 µM (active)
GI50 [19]: 0.236 µM (active)
GI50 [20]: 0.0995 µM (active)

CC(=O)OCC1OC(O/C=C(\CN=[N+]=[N-])C(C)=O)C(OC(C)=O)C(OC(C)=O)C1OC(C)=O (stereo not given)
GI50 [1]: 18.9 µM (inactive)
GI50 [2]: 7.62 µM (inactive)
GI50 [3]: 12 µM (inactive)
GI50 [4]: 11.4 µM (inactive)
GI50 [5]: 13.5 µM (inactive)
GI50 [6]: 9.44 µM (inactive)
GI50 [7]: 6.19 µM (inactive)
GI50 [8]: 1.39 µM (inactive)
GI50 [9]: 2.53 µM (inactive)
GI50 [10]: 19 µM (inactive)
GI50 [11]: 11.6 µM (inactive)
GI50 [12]: 21.6 µM (inactive)
GI50 [13]: 3.53 µM (inactive)
GI50 [14]: 27.6 µM (inactive)
GI50 [15]: 37.2 µM (inactive)
GI50 [16]: 16.1 µM (inactive)
GI50 [17]: 3.47 µM (inactive)
GI50 [18]: 3.05 µM (inactive)
GI50 [19]: 12.5 µM (inactive)
GI50 [20]: 5.38 µM (inactive)

CCOc1ccc(/N=C/C=C(\Cl)c2ccc3ccccc3c2)cc1
GI50 [1]: 11.8 µM (inactive)
GI50 [2]: 17.7 µM (inactive)
GI50 [3]: 16.5 µM (inactive)
GI50 [4]: 11.5 µM (inactive)
GI50 [5]: 14.3 µM (inactive)
GI50 [6]: 10.6 µM (inactive)
GI50 [7]: 17.5 µM (inactive)
GI50 [8]: 3.56 µM (inactive)
GI50 [9]: 2.55 µM (inactive)
GI50 [10]: 0.022 µM (active)
GI50 [11]: 15.8 µM (inactive)
GI50 [12]: 17.9 µM (inactive)
GI50 [13]: 7.33 µM (inactive)
GI50 [14]: 16.4 µM (inactive)
GI50 [15]: 18.8 µM (inactive)
GI50 [16]: 19.6 µM (inactive)
GI50 [17]: 6.58 µM (inactive)
GI50 [18]: 14.2 µM (inactive)
GI50 [19]: 10.6 µM (inactive)
GI50 [20]: 12.8 µM (inactive)

N=C(N)NS(=O)(=O)c1ccc(Nc2c3ccccc3nc3c(C(=O)NC(CO)(CO)CO)cccc23)cc1
GI50 [1]: 30.5 µM (inactive)
GI50 [2]: 3.44 µM (inactive)
GI50 [3]: 32.5 µM (inactive)
GI50 [4]: 21.3 µM (inactive)
GI50 [5]: 2.3 µM (inactive)
GI50 [6]: 36.5 µM (inactive)
GI50 [7]: 47.3 µM (inactive)
GI50 [8]: 4.63 µM (inactive)
GI50 [9]: 2.79 µM (inactive)
GI50 [10]: 32.1 µM (inactive)
GI50 [11]: 19.5 µM (inactive)
GI50 [12]: 19.5 µM (inactive)
GI50 [13]: 17.6 µM (inactive)
GI50 [14]: 28.1 µM (inactive)
GI50 [15]: 16.6 µM (inactive)
GI50 [16]: 19.1 µM (inactive)
GI50 [17]: 18.7 µM (inactive)
GI50 [18]: 19.4 µM (inactive)
GI50 [19]: > 10 µM (inactive)
GI50 [20]: 15.7 µM (inactive)
